≈ marks a conversion by molar mass, not a printed value. Read-outs that look alike come from different tables or passages of the source.
Experiments:
Strep. faecalis MGH-2 = experiment: in vitro antibacterial activity, microtitration dilution (MIC), Strep. faecalis MGH-2; type: cell-based; settings: Enterococcus faecalis, MGH2, read-out: minimum inhibiting concentration (MIC)
In short: (§1)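 MIC determined in vitro by microtitration broth dilution; values reported in μg/mL.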

Staph. aureus UC-76 = experiment: in vitro antibacterial activity, microtitration dilution (MIC), Staph. aureus UC-76; type: cell-based; settings: Staphylococcus aureus, UC76, read-out: minimum inhibiting concentration (MIC)
In short: as §1

Staph. aureus H 228 = experiment: in vitro antibacterial activity, microtitration dilution (MIC), Staph. aureus H 228; type: cell-based; settings: Staphylococcus aureus, H228, read-out: minimum inhibiting concentration (MIC)
In short: as §1

Strep. pheumoniae SV-1 [1] = experiment: in vitro antibacterial activity, microtitration dilution (MIC), Strep. pneumoniae SV-1; type: cell-based; settings: Streptococcus pneumoniae, SV1, read-out: minimum inhibiting concentration (MIC)
In short: as §1

Prot. rettgeri M 1771 = experiment: in vitro antibacterial activity, microtitration dilution (MIC), Prot. rettgeri M 1771; type: cell-based; settings: Providencia rettgeri, M1771, read-out: minimum inhibiting concentration (MIC)
In short: as §1

Klebs. pneumoniae MGH-2 = experiment: in vitro antibacterial activity, microtitration dilution (MIC), Klebs. pneumoniae MGH-2; type: cell-based; settings: Klebsiella pneumoniae, MGH2, read-out: minimum inhibiting concentration (MIC)
In short: as §1

Esch. coli Vogel [2] = experiment: in vitro antibacterial activity, microtitration dilution (MIC), Esch. coli Vogel; type: cell-based; settings: Escherichia coli, read-out: minimum inhibiting concentration (MIC)
In short: as §1

Esch. coli Vogel [3] = experiment: median protective dose in mice given lethal systemic infections, Esch. coli Vogel; type: in vivo; settings: Escherichia coli, single dose at time of challenge, read-out: median protective dose (PD50)
Method: (§2) The in vivo activity is obtained when the compounds are tested according to the procedure of Miller, et al (Proc. Soc. Exp. Biol. Med. 57, 261, 1944). The median protective dose (PD50) was determined in mice given lethal systemic infections. Single doses of compound were given at time of challenge.
(§3) By use of the above methods, the following minimum inhibiting concentration values (MICs in μg/mL), PD50 's in mg/kg, no effect phototoxicity dose in mg/kg and the cytotoxicity IC50 in μg/mL were obtained for representative enantiomers of the invention and compounds of the prior art as shown in the table.
(§4) The in vivo data as PD50 s are reported below the line of MICs for the same compound.

Strep. pyogenes C-203 [4] = experiment: in vitro antibacterial activity, microtitration dilution (MIC), Strep. pyogenes C-203; type: cell-based; settings: Streptococcus pyogenes, C203, read-out: minimum inhibiting concentration (MIC)
In short: as §1

Ent. cloacae MA2646 = experiment: in vitro antibacterial activity, microtitration dilution (MIC), Ent. cloacae MA2646; type: cell-based; settings: Enterobacter cloacae, read-out: minimum inhibiting concentration (MIC)
In short: as §1

in vivo = experiment: in vivo; set-up: species or system mice; settings: mouse, po
Method: The phototoxicity data is obtained using depilated mice. The compound was administered orally each day for four successive days, followed each day by 3 hours of UVA radiation. The mice were examined for any positive signs (redness, erythema) relative to control animals. The no effect dose and the 50% effect dose were determined. By use of the above methods, the following minimum inhibiting concentration values (MICs in μg/mL), PD50 's in mg/kg, no effect phototoxicity dose in mg/kg and the cytotoxicity IC50 in μg/mL were obtained for representative enantiomers of the invention and compounds of the prior art as shown in the table.

Pseud. aeruginosa UI-18 = experiment: in vitro antibacterial activity, microtitration dilution (MIC), Pseud. aeruginosa UI-18; type: cell-based; settings: Pseudomonas aeruginosa, UI18, read-out: minimum inhibiting concentration (MIC)
In short: as §1

Strep. pyogenes C-203 [5] = experiment: median protective dose in mice given lethal systemic infections, Strep. pyogenes C-203; type: in vivo; settings: Streptococcus pyogenes, single dose at time of challenge, read-out: median protective dose (PD50)
Method: as §2, §3, §4

Strep. pheumoniae SV-1 [6] = experiment: median protective dose in mice given lethal systemic infections, Strep. pneumoniae SV-1; type: in vivo; settings: Streptococcus pneumoniae, single dose at time of challenge, read-out: median protective dose (PD50)
Method: as §2, §3, §4

[7] = cytotoxicity, hamster V-79 cells, colony reduction; type: cell-based; settings: 3 hours treatment, colonies counted after 5 days, read-out: Cytotox (cytotoxicity IC50)
Method: The cytotoxicity data is obtained using hamster V-79 cells. The cells were suspended in tissue culture medium and grown overnight. Cells were treated with drug for 3 hours, washed free of drug and then replated, and the colonies counted after 5 days. The concentration of drug that reduced colones by 50% relative to control was recorded.
as §3

Row | Compound | MIC (Strep. faecalis MGH-2) | MIC (Staph. aureus UC-76) | MIC (Staph. aureus H 228) | MIC (Strep. pheumoniae SV-1 [1]) | MIC (Prot. rettgeri M 1771) | MIC (Klebs. pneumoniae MGH-2) | MIC (Esch. coli Vogel [2]) | ED50 (Esch. coli Vogel [3]; PO) | ED50 (Esch. coli Vogel [3]; SC) | MIC (Strep. pyogenes C-203 [4]) | MIC (Ent. cloacae MA2646) | NOAEL at 96 h (in vivo) | MIC (Pseud. aeruginosa UI-18) | ED50 (Strep. pyogenes C-203 [5]; C203, PO) | ED50 (Strep. pyogenes C-203 [5]; C203, SC) | ED50 (Strep. pheumoniae SV-1 [6]; SV1, PO) | ED50 (Strep. pheumoniae SV-1 [6]; SV1, SC) | CC50 at 3 h [7]
1 | C[C@@H]([C@@H]1CCN(c2cc3c(cc2F)c(=O)c(C(=O)O)cn3C2CC2)C1)N(C)C [Example 73] | 0.1 µg/mL (≈ 0.258 µM) | 50 ng/mL (≈ 0.129 µM) | 0.1 µg/mL (≈ 0.258 µM) | 50 ng/mL (≈ 0.129 µM) | 0.8 µg/mL (≈ 2.06 µM) | 0.2 µg/mL (≈ 0.516 µM) | 0.1 µg/mL (≈ 0.258 µM) | 5 mg/kg | 4 mg/kg | 50 ng/mL (≈ 0.129 µM) | 0.2 µg/mL (≈ 0.516 µM) | < 30 mg/kg | 1.6 µg/mL (≈ 4.13 µM) | 4 mg/kg | 4 mg/kg |  |  | 
2 | C[C@H](N)[C@@H]1CCN(c2cc3c(cc2F)c(=O)c(C(=O)O)cn3C2CC2)C1 [Example 3, 3R,1S-1-cyclopropyl-6-fluoro-7-[3-(1-aminoethyl)-1-pyrrolidinyl]-1,4-dihydro-4-oxo-3-quinolinecarboxylic acid] | 0.025 µg/mL (≈ 0.0696 µM) | 3 ng/mL (≈ 0.00835 µM) | 0.05 µg/mL (≈ 0.139 µM) | 3 ng/mL (≈ 0.00835 µM) | 0.2 µg/mL (≈ 0.556 µM) | 0.1 µg/mL (≈ 0.278 µM) | 0.05 µg/mL (≈ 0.139 µM) | 47 mg/kg | 0.9 mg/kg | 3 ng/mL (≈ 0.00835 µM) | 0.05 µg/mL (≈ 0.139 µM) |  | 0.4 µg/mL (≈ 1.11 µM) |  |  | 11 mg/kg | 0.7 mg/kg | 42 µg/mL (≈ 117 µM)
3 | C[C@@H](N)[C@@H]1CCN(c2cc3c(cc2F)c(=O)c(C(=O)O)cn3C2CC2)C1 [Example 4, 3R,1R-1-cyclopropyl-6-fluoro-7-[3-(1-aminoethyl)-1-pyrrolidinyl]-1,4-dihydro-4-oxo-3-quinolinecarboxylic acid] | 0.1 µg/mL (≈ 0.278 µM) | 50 ng/mL (≈ 0.139 µM) | 0.2 µg/mL (≈ 0.556 µM) | 25 ng/mL (≈ 0.0696 µM) | 0.8 µg/mL (≈ 2.23 µM) | 0.4 µg/mL (≈ 1.11 µM) | 0.1 µg/mL (≈ 0.278 µM) | 72 mg/kg | 2 mg/kg | 100 ng/mL (≈ 0.278 µM) | 0.2 µg/mL (≈ 0.556 µM) |  | 1.6 µg/mL (≈ 4.45 µM) |  |  | 105 mg/kg | 2 mg/kg | 140 µg/mL (≈ 390 µM)
4 | CN[C@@H](C)[C@@H]1CCN(c2c(F)cc3c(=O)c(C(=O)O)cn(C4CC4)c3c2OC)C1 [Example 36, 3R,1S-1-cyclopropyl-6-fluoro-7-[3-(1-N-methylaminoethyl)-1-pyrrolidinyl]-8-methoxy-1,4-dihydro-4-oxo-3-quinolinecarboxylic acid] | 0.025 µg/mL (≈ 0.062 µM) | 13 ng/mL (≈ 0.0322 µM) | 0.013 µg/mL (≈ 0.0322 µM) | 13 ng/mL (≈ 0.0322 µM) | 0.2 µg/mL (≈ 0.496 µM) | 0.1 µg/mL (≈ 0.248 µM) | 0.05 µg/mL (≈ 0.124 µM) | 4 mg/kg | 1 mg/kg | 3 ng/mL (≈ 0.00744 µM) | 0.05 µg/mL (≈ 0.124 µM) | > 100 mg/kg | 0.8 µg/mL (≈ 1.98 µM) | 1 mg/kg | 0.1 mg/kg |  |  | 33 µg/mL (≈ 81.8 µM)
5 | C[C@H](N)[C@@H]1CCN(c2nc3c(cc2F)c(=O)c(C(=O)O)cn3-c2ccc(F)cc2F)C1 [Example 43, 3R,1S-7-[3(1-aminoethyl)-1-pyrrolidinyl]-1-(2,4-difluorophenyl)-6-fluoro-1,4-dihydro-4-oxo-1,8-naphthyridine-3-carboxylic acid] | 0.025 µg/mL (≈ 0.0578 µM) | 6 ng/mL (≈ 0.0139 µM) | 0.05 µg/mL (≈ 0.116 µM) | 6 ng/mL (≈ 0.0139 µM) | 0.4 µg/mL (≈ 0.925 µM) | 0.2 µg/mL (≈ 0.463 µM) | 0.1 µg/mL (≈ 0.231 µM) | 3.5 mg/kg | 1 mg/kg | 6 ng/mL (≈ 0.0139 µM) | 0.2 µg/mL (≈ 0.463 µM) | > 100 mg/kg | 0.8 µg/mL (≈ 1.85 µM) | 1 mg/kg | 1 mg/kg | 3 mg/kg | 3 mg/kg | 280 µg/mL (≈ 648 µM)
6 | CCN[C@@H](C)[C@@H]1CCN(c2c(F)cc3c(=O)c(C(=O)O)cn(C4CC4)c3c2OC)C1 [Example 18, 3R,1S-1-cyclopropyl-6-fluoro-7-[3-(1-N-ethylaminoethyl)-1-pyrrolidinyl]-8-methoxy-1,4-dihydro-4-3-quinolinecarboxylic acid] | 0.025 µg/mL (≈ 0.0599 µM) | 3 ng/mL (≈ 0.00719 µM) | 0.013 µg/mL (≈ 0.0311 µM) | 5 ng/mL (≈ 0.012 µM) | 0.4 µg/mL (≈ 0.958 µM) | 0.2 µg/mL (≈ 0.479 µM) | 0.1 µg/mL (≈ 0.24 µM) | 5 mg/kg | 2 mg/kg | 6 ng/mL (≈ 0.0144 µM) | 0.1 µg/mL (≈ 0.24 µM) | > 100 mg/kg | 3.1 µg/mL (≈ 7.43 µM) | 0.5 mg/kg | 0.2 mg/kg |  |  | 110 µg/mL (≈ 263 µM)

Reference: patent US5563155A, “Individual stereosiomers of 7-[3-(aminoalkyl)-1-pyrrolidinyl]-quinolones and naphthyridones as antibacterial agents” (Warner-Lambert Company, priority 1995, dated 1996)
